Data as given in patent publication US5525626A (priority 1989, dated 1996).
pIC50: −log10 of the molar value.

Experiments:
Assay in all cases: 3H-thymidine assay
Format in all cases: cell-based
CAKI-2 cells = settings: Homo sapiens, CAKI-2
Procedure: (§1) The cell lines were cultivated as indicated in Example 1.
(§2) The antiproliferative effect of the 1,2-benzopyrone derivatives according to the invention on the tumor cell lines in each case was shown with the help of the ^3 H-thymidine insertion and with reference to growth curves.
In a 24-well-plate, in each case 10^4 cells of the line to be investigated were inoculated per well. Approximately 48 hours later the cells were half-confluent; the medium was then changed and replaced by a medium containing the active substance in question (cf Table 3). […] Subsequently the cultures were washed twice with ice-cold PBS and the high-molecular-weight ^3 H-radioactivity was precipitated with 5% trichloroacetic acid for one hour at 4° C. After the washing of the cells in PBS the ^3 H-radioactivity was solubilized with 0.3M NaOH and measured in the counter. The growth-inhibition was determined by comparing the thymidine insertion of the cells treated with active substance with untreated cells.
(§3) The active substance concentration in each case was so chosen that ^3 H-thymidine insertion was 50% inhibited. The active substance concentrations used under this aspect for the active substances and cell lines in each case are given in table 4 below in μM/ml, […]

A-375 melanoma cells = settings: Homo sapiens, A-375
[1] = system: GV-1 prostate carcinoma cells
[2] = system: Z-R-75-1 breast cancer cells; settings: Homo sapiens, ZR-75-1
Daudi leukemic cells = settings: Homo sapiens
[3] = system: MCF-7 breast cancer cells; settings: Homo sapiens, MCF7
Procedure: as §1, §2
(§4) In a 24-well-plate, in each case 10^4 cells of the line to be investigated were inoculated per well. Approximately 48 hours later the cells were half-confluent; the medium was then changed and replaced by a medium containing the active substance in question (cf Table 3). After a further 48 hours 0.25 μCi ^3 H-thymidine (Ammersham) was added to each well and the cells were incubated for a further 24 hours. Subsequently the cultures were washed twice with ice-cold PBS and the high-molecular-weight ^3 H-radioactivity was precipitated with 5% trichloroacetic acid for one hour at 4° C. After the washing of the cells in PBS the ^3 H-radioactivity was solubilized with 0.3M NaOH and measured in the counter. The growth-inhibition was determined by comparing the thymidine insertion of the cells treated with active substance with untreated cells.
as §3

K-562 leukemic cells = settings: Homo sapiens, K562
Procedure: as §1, §2, §4, §3

At T 20 = settings: Mus musculus, AtT20
Procedure: as §1, §2, §4, §3

CAKI-1 cells = settings: Homo sapiens, CAKI-1
Procedure: as §1, §2, §4, §3

[4] = 1 μM/ml, read-out: 3H-thymidine tracer (%) of control
[5] = 2 μM/ml, read-out: 3H-thymidine tracer (%) of control
[6] = 4 μM/ml, read-out: 3H-thymidine tracer (%) of control
[7] = 8 μM/ml, read-out: 3H-thymidine tracer (%) of control
[8] = 16 μM/ml, read-out: 3H-thymidine tracer (%) of control
[9] = 25 μM/ml, read-out: 3H-thymidine tracer (%) of control
[10] = 50 μM/ml, read-out: 3H-thymidine tracer (%) of control
[11] = 100 μM/ml, read-out: 3H-thymidine tracer (%) of control
[12] = 150 μM/ml, read-out: 3H-thymidine tracer (%) of control
[13] = 500 μM/ml, read-out: 3H-thymidine tracer (%) of control
[14] = Table 4, *: maximum usable dosage, no 50% inhibition, read-out: active substance concentration at which 3H-thymidine insertion was 50% inhibited
[15] = 250 μM/ml, read-out: 3H-thymidine tracer (%) of control
[16] = Table 4, read-out: active substance concentration at which 3H-thymidine insertion was 50% inhibited

## O=c1ccc2ccc(O)cc2o1 [7-OH-1,2-BP, 7-hydroxy-1,2-benzopyrone]
CAKI-2 cells; [4]
  activity at 1 µM: 95%
CAKI-2 cells; [5]
  activity at 2 µM: 92%
CAKI-2 cells; [6]
  activity at 4 µM: 88%
CAKI-2 cells; [7]
  activity at 8 µM: 77%
CAKI-2 cells; [8]
  activity at 16 µM: 71%
CAKI-2 cells; [9]
  activity at 25 µM: 65%
CAKI-2 cells; [10]
  activity at 50 µM: 54%
CAKI-2 cells; [11]
  activity at 100 µM: 46%
CAKI-2 cells; [12]
  activity at 150 µM: 39%
CAKI-2 cells; [13]
  activity at 500 µM: 35%
CAKI-2 cells; [14]
  pIC50: 4.12
A-375 melanoma cells; [4]
  activity at 1 µM: 100%
A-375 melanoma cells; [5]
  activity at 2 µM: 92%
A-375 melanoma cells; [6]
  activity at 4 µM: 86%
A-375 melanoma cells; [7]
  activity at 8 µM: 81%
A-375 melanoma cells; [8]
  activity at 16 µM: 72%
A-375 melanoma cells; [9]
  activity at 25 µM: 64%
A-375 melanoma cells; [10]
  activity at 50 µM: 53%
A-375 melanoma cells; [11]
  activity at 100 µM: 49%
A-375 melanoma cells; [15]
  activity at 250 µM: 47%
A-375 melanoma cells; [13]
  activity at 500 µM: 44%
A-375 melanoma cells; [14]
  pIC50: 4.00
[1]; [4]
  activity at 1 µM: 100%
[1]; [5]
  activity at 2 µM: 89%
[1]; [6]
  activity at 4 µM: 83%
[1]; [7]
  activity at 8 µM: 75%
[1]; [8]
  activity at 16 µM: 69%
[1]; [9]
  activity at 25 µM: 63%
[1]; [10]
  activity at 50 µM: 51%
[1]; [11]
  activity at 100 µM: 39%
[1]; [15]
  activity at 250 µM: 36%
[1]; [13]
  activity at 500 µM: 27%
[1]; [16]
  pIC50: 4.12
[2]; [4]
  activity at 1 µM: 96%
[2]; [5]
  activity at 2 µM: 91%
[2]; [6]
  activity at 4 µM: 82%
[2]; [7]
  activity at 8 µM: 73%
[2]; [8]
  activity at 16 µM: 65%
[2]; [9]
  activity at 25 µM: 55%
[2]; [10]
  activity at 50 µM: 49%
[2]; [11]
  activity at 100 µM: 43%
[2]; [15]
  activity at 250 µM: 39%
[2]; [13]
  activity at 500 µM: 27%
[2]; [14]
  pIC50: 4.30
Daudi leukemic cells; [4]
  activity at 1 µM: 98%
Daudi leukemic cells; [5]
  activity at 2 µM: 89%
Daudi leukemic cells; [6]
  activity at 4 µM: 82%
Daudi leukemic cells; [7]
  activity at 8 µM: 76%
Daudi leukemic cells; [8]
  activity at 16 µM: 63%
Daudi leukemic cells; [9]
  activity at 25 µM: 54%
Daudi leukemic cells; [10]
  activity at 50 µM: 49%
Daudi leukemic cells; [11]
  activity at 100 µM: 38%
Daudi leukemic cells; [15]
  activity at 250 µM: 35%
Daudi leukemic cells; [13]
  activity at 500 µM: 28%
Daudi leukemic cells; [16]
  pIC50: 4.30
[3]; [4]
  activity at 1 µM: 98%
[3]; [5]
  activity at 2 µM: 94%
[3]; [6]
  activity at 4 µM: 88%
[3]; [7]
  activity at 8 µM: 82%
[3]; [8]
  activity at 16 µM: 75%
[3]; [9]
  activity at 25 µM: 69%
[3]; [10]
  activity at 50 µM: 62%
[3]; [11]
  activity at 100 µM: 51%
[3]; [15]
  activity at 250 µM: 43%
[3]; [13]
  activity at 500 µM: 29%
[3]; [14]
  pIC50: 4.00
K-562 leukemic cells; [4]
  activity at 1 µM: 100%
K-562 leukemic cells; [5]
  activity at 2 µM: 91%
K-562 leukemic cells; [6]
  activity at 4 µM: 84%
K-562 leukemic cells; [7]
  activity at 8 µM: 76%
K-562 leukemic cells; [8]
  activity at 16 µM: 67%
K-562 leukemic cells; [9]
  activity at 25 µM: 53%
K-562 leukemic cells; [10]
  activity at 50 µM: 47%
K-562 leukemic cells; [11]
  activity at 100 µM: 42%
K-562 leukemic cells; [15]
  activity at 250 µM: 39%
K-562 leukemic cells; [13]
  activity at 500 µM: 37%
K-562 leukemic cells; [16]
  pIC50: 4.30
At T 20; [4]
  activity at 1 µM: 98%
At T 20; [5]
  activity at 2 µM: 89%
At T 20; [6]
  activity at 4 µM: 85%
At T 20; [7]
  activity at 8 µM: 78%
At T 20; [8]
  activity at 16 µM: 65%
At T 20; [9]
  activity at 25 µM: 60%
At T 20; [10]
  activity at 50 µM: 62%
At T 20; [11]
  activity at 100 µM: 44%
At T 20; [15]
  activity at 250 µM: 38%
At T 20; [13]
  activity at 500 µM: 31%
At T 20; [16]
  pIC50: 4.30
CAKI-1 cells; [4]
  activity at 1 µM: 100%
CAKI-1 cells; [5]
  activity at 2 µM: 98%
CAKI-1 cells; [6]
  activity at 4 µM: 90%
CAKI-1 cells; [7]
  activity at 8 µM: 81%
CAKI-1 cells; [8]
  activity at 16 µM: 76%
CAKI-1 cells; [9]
  activity at 25 µM: 62%
CAKI-1 cells; [10]
  activity at 50 µM: 57%
CAKI-1 cells; [11]
  activity at 100 µM: 49%
CAKI-1 cells; [12]
  activity at 150 µM: 44%
CAKI-1 cells; [13]
  activity at 500 µM: 40%
CAKI-1 cells; [14]
  pIC50: 4.00
